Results published in PMC8405091, “Microwave-assisted Phospha-Michael addition reactions in the 13α-oestrone series and in vitro antiproliferative properties” (Journal of Enzyme Inhibition and Medicinal Chemistry, 2021).

Tests used:
Format in all cases: cell-based, human
HeLa cells = assay: MTT antiproliferative assay, HeLa; conditions: 72 h; for inhibition at 10 µM: read-out: Growth inhibition, % ± SEM, 10 μM
Experimental: (§1) The antiproliferative properties of the newly synthesized compounds (9–20) and their starting materials (4 and 5) were determined on a panel of human adherent cancer cell lines. MCF-7, MDA-MB-231 and T47D were isolated from breast cancers differing in biochemical background, while A2780 cells were isolated from ovarian cancer. HeLa and SiHa are cervical cancer cell lines positive for HPV-18 and HPV-16, respectively, while C33-A cervical cancer cells are negative for HPV. Moreover, two oropharyngeal cancer cell lines were also utilized: the HPV-negative UPCI-SCC-131 and HPV-16 positive UPCI-SCC-154. The cancer selectivity of compounds was tested on the non-cancerous mouse embryo fibroblast cell line NIH/3T3. All cell lines were purchased from European Collection of Cell Cultures (ECCAC, Salisbury, UK) exception for SiHa and C33-A (American Tissue Culture Collection, Manassas, VA, USA) and HN-SCC-131 and UPCI-SCC-154 (German Collection of Microorganisms and Cell Cultures GmbH, Braunschweig, Germany). Cells were cultivated in minimal essential medium supplemented with 10% fetal bovine serum, 1% non-essential amino acids and an antibiotic–antimycotic mixture. The medium of oropharyngeal cancer cells additionally contained 2.0 mM L-glutamine. All media and supplements were obtained from Lonza Group Ltd., Basel, Switzerland. Near-confluent cancer cells were seeded onto a 96-well microplate at a density of 5,000 cells/well, except for C33-A which were seeded at 10,000/well. After overnight standing, new medium containing the tested compounds at 10 and 30 µM final concentration was added. After incubation for 72 h at 37 °C in humidified air containing 5% CO2, the living cells were assayed by the addition of 20 μL of 5 mg/ml 3-(4,5-dimethylthiazol-2-yl)-2,5-diphenyltetrazolium bromide (MTT) solution. MTT was converted by intact mitochondrial reductase and precipitated as purple crystals during a 4-h contact period. The medium was next removed and the precipitated formazan crystals were dissolved in 100 μL of DMSO during a 60-min period of shaking at 37 ^оC.
(§2) All in vitro experiments were carried out twice with five parallels. Stock solutions of the tested substances (10 mM) were prepared in DMSO. […] Cisplatin (Ebewe Pharma GmbH, Unterach, Austria) was used as positive control.

SiHa cells = assay: MTT antiproliferative assay, SiHa; conditions: 72 h; for inhibition at 10 µM: read-out: Growth inhibition, % ± SEM, 10 μM
Experimental: as §1, §2

C33-A cells = assay: MTT antiproliferative assay, C33-A; conditions: Homo sapiens, C-33-A, 72 h; for inhibition at 10 µM: read-out: Growth inhibition, % ± SEM, C33-A, 10 μM; for inhibition at 30 µM: read-out: Growth inhibition, % ± SEM, C33-A, 30 μM
Experimental: as §1, §2

T47D cells = assay: MTT antiproliferative assay, T47D; conditions: Homo sapiens, 72 h; for inhibition at 10 µM: read-out: Growth inhibition, % ± SEM, 10 μM; for inhibition at 30 µM: read-out: Growth inhibition, % ± SEM, 30 μM
Experimental: as §1, §2

A2780 cells = assay: MTT antiproliferative assay, A2780; conditions: Homo sapiens, A2780, 72 h, read-out: Growth inhibition, % ± SEM, 72 h; for inhibition at 10 µM: A2780, 10 μM; for inhibition at 30 µM: A2780, 30 μM
Experimental: as §1, §2

MDA-MB-231 cells = assay: MTT antiproliferative assay, MDA-MB-231; conditions: Homo sapiens, MDA-MB-231, 72 h, read-out: Growth inhibition; % ± SEM
Experimental: as §1, §2

UPCI-SCC-154 cells = assay: MTT antiproliferative assay, UPCI-SCC-154; conditions: 72 h, 72 h; for inhibition at 10 µM: UPCI-SCC-154, 10 μM
Experimental: as §1, §2

UPCI-SCC-131 cells = assay: MTT antiproliferative assay, UPCI-SCC-131; conditions: 72 h
Experimental: as §1, §2

MCF-7 cells = assay: MTT antiproliferative assay, MCF-7; conditions: Homo sapiens, MCF7, 72 h, read-out: Growth inhibition, % ± SEM, 72 h; for inhibition at 10 µM: MCF-7, 10 μM; for inhibition at 30 µM: MCF-7, 30 μM
Experimental: as §1, §2

[1] = Homo sapiens, read-out: Growth inhibition, % ± SEM
[2] = Homo sapiens, read-out: Growth inhibition, % ± SEM, 30 μM

Row | SMILES | inhibition at 10 µM (HeLa cells; Homo sapiens) | inhibition at 10 µM (SiHa cells; Homo sapiens) | inhibition at 10 µM (C33-A cells) | inhibition at 30 µM (C33-A cells) | inhibition at 10 µM (T47D cells) | inhibition at 30 µM (T47D cells) | inhibition at 10 µM (A2780 cells) | inhibition at 30 µM (A2780 cells) | inhibition at 10 µM (MDA-MB-231 cells) | inhibition at 30 µM (MDA-MB-231 cells) | inhibition at 10 µM (UPCI-SCC-154 cells; [1]) | inhibition at 10 µM (MCF-7 cells) | inhibition at 30 µM (MCF-7 cells) | further results
1 | CC12CCC3c4ccc(OCc5ccccc5)cc4CCC3C1CC(CP(=O)(c1ccc3ccccc3c1)c1ccc3ccccc3c1)C2=O (stereo not drawn) [Compound 19, [(3-benzyloxy-17-oxo-13α-oestra-1,3,5(10)-trien-16α-yl)methyl]di(naphtalen-2-yl)phosphine oxide] | 31 ± 1.11% | 23.2 ± 1.36% | 28.1 ± 1.39% | 34.7 ± 1.7% | 59.4 ± 2.44% | 62.4 ± 1.7% | < 20% | 28.5 ± 2.35% | < 20% | < 20% | 34.3 ± 2.8% | 31.8 ± 2.47% | 40.6 ± 1.71% | Growth inhibition; % ± SEM (HeLa cells; 30 μM): 48.89 ± 0.90%; Growth inhibition; % ± SEM (SiHa cells; 30 μM): 40.30 ± 2.00%; Growth inhibition; % ± SEM (UPCI-SCC-154 cells; UPCI-SCC-154, 30 μM, 30 µM): 48.81 ± 2.15%; Growth inhibition; % ± SEM (UPCI-SCC-131 cells; UPCI-SCC-131, 10 μM, 10 µM): – (Inhibition values <20% are not presented.); Growth inhibition; % ± SEM (UPCI-SCC-131 cells; UPCI-SCC-131, 30 μM, 30 µM): 40.98 ± 2.94%
2 | COc1ccc2c(c1)CCC1C2CCC2(C)C(=O)C(CP(=O)(c3ccc4ccccc4c3)c3ccc4ccccc4c3)CC12 (stereo not drawn) [Compound 17, [(3-methoxy-17-oxo-13α-oestra-1,3,5(10)-trien-16α-yl)methyl]di(naphtalen-2-yl)phosphine oxide] | < 20% | < 20% | < 20% | < 20% | < 20% | 27.1 ± 2.93% | < 20% | < 20% | < 20% | < 20% | < 20% | < 20% | < 20% | inhibition at 30 µM (HeLa cells; [2]): < 20%; inhibition at 30 µM (SiHa cells; [2]): < 20%; inhibition at 30 µM (UPCI-SCC-154 cells; Homo sapiens, read-out: Growth inhibition, % ± SEM, UPCI-SCC-154, 30 μM): 20.3 ± 2.69%; inhibition at 10 µM (UPCI-SCC-131 cells; Homo sapiens, read-out: Growth inhibition, % ± SEM, UPCI-SCC-131, 10 μM): 26.5 ± 1.7%; inhibition at 30 µM (UPCI-SCC-131 cells; Homo sapiens, read-out: Growth inhibition, % ± SEM, UPCI-SCC-131, 30 μM): 45.3 ± 1.84%
